Results published in BindingDB's records for doi:10.1021/jm00063a004 (Cnrs-Cercoa, 1993).
pKi: −log10 of the molar value.

Target: Trypsin (Sus scrofa) (UniProt P00761)
Experiment: Apparent binding constant against porcine trypsin

Sequence of Trypsin (Sus scrofa) (P00761 whole entry, looked up): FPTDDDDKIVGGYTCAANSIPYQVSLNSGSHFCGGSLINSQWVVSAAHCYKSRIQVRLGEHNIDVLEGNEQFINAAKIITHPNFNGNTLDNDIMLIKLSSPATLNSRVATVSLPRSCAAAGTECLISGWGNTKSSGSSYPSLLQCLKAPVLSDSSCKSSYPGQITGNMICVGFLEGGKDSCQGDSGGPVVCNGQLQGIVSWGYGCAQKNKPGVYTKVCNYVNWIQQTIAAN

## N=C(N)NCCCC1NC(=O)CNC(=O)c2cc(ccc2CBr)NC1=O (stereo unspecified) [N-[3-(11-Bromomethyl-3,6,9-trioxo-2,5,8-triaza-bicyclo[8.3.1]tetradeca-1(13),10(14),11-trien-4-yl)-propyl]-guanidine]
  pKi: 4.70
